# Reference: BindingDB's records for doi:10.1021/jm960799i (Dupont Pharmaceuticals, 1997)
# Values joined by “and” are separate entries in the source; they are usually repeats but may differ in a detail not shown here. Equal values may be shown once. Where a name gives a salt, the structure may show the parent alone.
# Molecular target: Integrin alpha-IIb/beta-3 (Homo sapiens, UniProt P08514+P05106)
# Test: In vitro inhibition of ADP-induced platelet aggregation in human platelet rich plasma (hPRP)
# Integrin alpha-IIb/beta-3, sequence (P05106 27-788 limits assumed): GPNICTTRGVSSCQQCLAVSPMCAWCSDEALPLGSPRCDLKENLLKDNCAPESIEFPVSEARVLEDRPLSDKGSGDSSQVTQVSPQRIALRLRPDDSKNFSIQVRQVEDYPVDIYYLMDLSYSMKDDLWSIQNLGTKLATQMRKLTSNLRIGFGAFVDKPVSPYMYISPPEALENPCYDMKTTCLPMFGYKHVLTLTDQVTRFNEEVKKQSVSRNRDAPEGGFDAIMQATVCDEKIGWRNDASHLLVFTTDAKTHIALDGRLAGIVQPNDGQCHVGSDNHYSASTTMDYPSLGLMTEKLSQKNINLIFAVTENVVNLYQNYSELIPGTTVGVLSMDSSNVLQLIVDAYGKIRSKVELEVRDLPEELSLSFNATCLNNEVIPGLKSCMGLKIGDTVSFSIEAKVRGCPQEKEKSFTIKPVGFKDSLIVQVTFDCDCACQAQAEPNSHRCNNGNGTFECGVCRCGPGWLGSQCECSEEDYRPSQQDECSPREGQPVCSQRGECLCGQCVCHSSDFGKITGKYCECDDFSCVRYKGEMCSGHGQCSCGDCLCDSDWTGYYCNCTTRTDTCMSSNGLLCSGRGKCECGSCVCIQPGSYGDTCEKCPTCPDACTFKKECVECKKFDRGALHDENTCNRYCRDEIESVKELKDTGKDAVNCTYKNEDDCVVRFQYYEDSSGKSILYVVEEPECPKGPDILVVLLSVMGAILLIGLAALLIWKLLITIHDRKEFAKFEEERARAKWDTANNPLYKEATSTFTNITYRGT
# Integrin alpha-IIb/beta-3, sequence (P08514 32-887 limits assumed): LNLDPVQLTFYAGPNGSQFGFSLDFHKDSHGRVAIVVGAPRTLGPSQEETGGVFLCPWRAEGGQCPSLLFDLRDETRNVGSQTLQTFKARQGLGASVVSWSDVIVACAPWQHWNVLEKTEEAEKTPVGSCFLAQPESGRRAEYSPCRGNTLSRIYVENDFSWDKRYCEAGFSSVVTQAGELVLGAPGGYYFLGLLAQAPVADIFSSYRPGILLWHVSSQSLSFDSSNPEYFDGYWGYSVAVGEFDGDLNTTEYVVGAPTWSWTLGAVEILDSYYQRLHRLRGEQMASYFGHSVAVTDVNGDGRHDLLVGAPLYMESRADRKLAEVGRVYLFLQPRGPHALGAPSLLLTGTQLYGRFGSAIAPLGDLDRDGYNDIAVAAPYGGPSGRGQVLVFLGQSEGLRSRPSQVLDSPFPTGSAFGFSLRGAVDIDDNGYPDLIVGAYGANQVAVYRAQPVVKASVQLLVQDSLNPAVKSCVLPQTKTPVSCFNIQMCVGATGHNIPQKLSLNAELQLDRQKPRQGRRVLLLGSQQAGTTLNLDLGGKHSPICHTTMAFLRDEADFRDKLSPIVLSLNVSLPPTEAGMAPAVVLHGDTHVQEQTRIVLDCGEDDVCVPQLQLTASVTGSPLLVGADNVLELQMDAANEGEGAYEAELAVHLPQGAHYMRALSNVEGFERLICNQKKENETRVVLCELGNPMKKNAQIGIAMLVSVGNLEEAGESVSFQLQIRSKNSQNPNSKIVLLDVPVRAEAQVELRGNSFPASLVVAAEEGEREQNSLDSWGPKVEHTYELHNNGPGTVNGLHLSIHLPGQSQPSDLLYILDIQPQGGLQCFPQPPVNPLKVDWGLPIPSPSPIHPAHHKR
# Integrin alpha-IIb/beta-3, sequence (P08514 891-1039 limits assumed): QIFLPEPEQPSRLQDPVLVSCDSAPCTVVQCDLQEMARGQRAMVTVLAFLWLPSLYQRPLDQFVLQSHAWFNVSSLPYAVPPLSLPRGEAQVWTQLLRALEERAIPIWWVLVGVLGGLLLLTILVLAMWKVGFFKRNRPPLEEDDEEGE
row,IC50,Compound
1,60 nM,N=C(N)c1ccc(C2=NO[C@@H](CC(=O)NCCC(=O)O)C2)cc1
2,170 nM,N=C(N)c1ccc(C2=NOC(CC(=O)N[C@@H](CC(=O)O)C(=O)N3CCc4ccccc4C3)C2)cc1 (stereo not given in full)
3,210 nM,"N=C(N)c1ccc(C2=NOC(CC(=O)NC(CC(=O)O)CC(=O)O)C2)cc1 (stereo not given) [3-{2-[3-(4-Carbamimidoyl-phenyl)-4,5-dihydro-isoxazol-5-yl]-acetylamino}-pentanedioic acid; TFA]"
4,78 nM,"N=C(N)c1ccc(C2=NOC(CC(=O)N[C@@H](CC(=O)O)Cc3ccccc3)C2)cc1 (stereo partly drawn) [(R)-3-{2-[3-(4-Carbamimidoyl-phenyl)-4,5-dihydro-isoxazol-5-yl]-acetylamino}-4-phenyl-butyric acid; TFA]"
5,3300 nM,"COC(=O)C[C@H](CN1CCCC1)NC(=O)CC1CC(c2ccc(C(=N)N)cc2)=NO1 (stereo partly drawn) [(R)-3-{2-[3-(4-Carbamimidoyl-phenyl)-4,5-dihydro-isoxazol-5-yl]-acetylamino}-4-pyrrolidin-1-yl-butyric acid methyl ester; TFA]"
6,180 nM,"N=C(N)c1ccc(C2=NOC(CC(=O)N[C@H](CCc3ccccn3)CC(=O)O)C2)cc1 (stereo partly drawn) [(R)-3-{2-[3-(4-Carbamimidoyl-phenyl)-4,5-dihydro-isoxazol-5-yl]-acetylamino}-5-pyridin-2-yl-pentanoic acid; TFA]"
7,360 nM,"N=C(N)c1ccc(C2=NOC(CC(=O)N[C@H](CCc3cccnc3)CC(=O)O)C2)cc1 (stereo partly drawn) [(R)-3-{2-[3-(4-Carbamimidoyl-phenyl)-4,5-dihydro-isoxazol-5-yl]-acetylamino}-5-pyridin-3-yl-pentanoic acid; TFA]"
8,500 nM,"N=C(N)c1ccc(C2=NOC(CC(=O)N[C@H](CCc3ccncc3)CC(=O)O)C2)cc1 (stereo partly drawn) [(R)-3-{2-[3-(4-Carbamimidoyl-phenyl)-4,5-dihydro-isoxazol-5-yl]-acetylamino}-5-pyridin-4-yl-pentanoic acid; TFA]"
9,54 nM,"CC[C@H](CC(=O)O)NC(=O)C[C@H]1CC(c2ccc(C(=N)N)cc2)=NO1 [(R)-3-{2-[(R)-3-(4-Carbamimidoyl-phenyl)-4,5-dihydro-isoxazol-5-yl]-acetylamino}-pentanoic acid; TFA]"
10,67 nM,"N=C(N)c1ccc(C2=NOC(CC(=O)NC[C@H](NC(=O)NCc3ccccc3)C(=O)O)C2)cc1 (stereo partly drawn) [(S)-2-(3-Benzyl-ureido)-3-{2-[3-(4-carbamimidoyl-phenyl)-4,5-dihydro-isoxazol-5-yl]-acetylamino}-propionic acid; TFA]"
11,44 nM,"N=C(N)c1ccc(C2=NOC(CC(=O)NC[C@H](NC(=O)OCc3ccc(Br)cc3)C(=O)O)C2)cc1 (stereo partly drawn) [(S)-2-(4-Bromo-benzyloxycarbonylamino)-3-{2-[3-(4-carbamimidoyl-phenyl)-4,5-dihydro-isoxazol-5-yl]-acetylamino}-propionic acid; TFA]"
12,570 nM,"CN(C[C@@H](C(=O)O)N(C)C(=O)OCc1ccccc1)C(=O)CC1CC(c2ccc(C(=N)N)cc2)=NO1 (stereo partly drawn) [(S)-2-(Benzyloxycarbonyl-methyl-amino)-3-({2-[3-(4-carbamimidoyl-phenyl)-4,5-dihydro-isoxazol-5-yl]-acetyl}-methyl-amino)-propionic acid; TFA]"
13,91 nM,"N=C(N)c1ccc(C2=NOC(CC(=O)NC[C@H](N)C(=O)O)C2)cc1 (stereo partly drawn) [(S)-2-Amino-3-{2-[3-(4-carbamimidoyl-phenyl)-4,5-dihydro-isoxazol-5-yl]-acetylamino}-propionic acid; TFA]"
14,160 nM,"COC(=O)[C@H](CN(C)C(=O)CC1CC(c2ccc(C(=N)N)cc2)=NO1)NC(=O)OCc1ccccc1 (stereo partly drawn) [(S)-2-Benzyloxycarbonylamino-3-({2-[3-(4-carbamimidoyl-phenyl)-4,5-dihydro-isoxazol-5-yl]-acetyl}-methyl-amino)-propionic acid methyl ester; TFA]"
15,67 nM,"N=C(N)c1ccc(C2=NOC(CC(=O)NC[C@H](NC(=O)c3ccc(-c4ccccc4)cc3)C(=O)O)C2)cc1 (stereo partly drawn) [(S)-2-[(Biphenyl-4-carbonyl)-amino]-3-{2-[3-(4-carbamimidoyl-phenyl)-4,5-dihydro-isoxazol-5-yl]-acetylamino}-propionic acid; TFA]"
16,32 nM,"N=C(N)c1ccc(C2=NOC(CC(=O)NC[C@H](NC(=O)OCc3ccccc3Cl)C(=O)O)C2)cc1 (stereo partly drawn) [(S)-3-{2-[3-(4-Carbamimidoyl-phenyl)-4,5-dihydro-isoxazol-5-yl]-acetylamino}-2-(2-chloro-benzyloxycarbonylamino)-propionic acid; TFA]"
17,36 nM,"N=C(N)c1ccc(C2=NOC(CC(=O)NC[C@H](NC(=O)OCCC3CC3)C(=O)O)C2)cc1 (stereo partly drawn) [(S)-3-{2-[3-(4-Carbamimidoyl-phenyl)-4,5-dihydro-isoxazol-5-yl]-acetylamino}-2-(2-cyclopropyl-ethoxycarbonylamino)-propionic acid; TFA]"

# The remaining lines, values behind:
row,Compound,IC50
1,"COC(=O)CC(CN(C)C)NC(=O)CC1CC(c2ccc(C(=N)N)cc2)=NO1 (stereo not given) [3-{2-[3-(4-Carbamimidoyl-phenyl)-4,5-dihydro-isoxazol-5-yl]-acetylamino}-4-dimethylamino-butyric acid methyl ester; TFA]",2700 nM
2,"CCCCOC(=O)N[C@H](CNC(=O)C[C@H]1CC(c2ccc(C(=N)N)cc2)=NO1)C(=O)O [(R)-2-Butoxycarbonylamino-3-{2-[(R)-3-(4-carbamimidoyl-phenyl)-4,5-dihydro-isoxazol-5-yl]-acetylamino}-propionic acid; hydrochloride]",27 nM
3,"CCCCOC(=O)N[C@H](CNC(=O)C[C@@H]1CC(c2ccc(C(=N)N)cc2)=NO1)C(=O)O [(R)-2-Butoxycarbonylamino-3-{2-[(S)-3-(4-carbamimidoyl-phenyl)-4,5-dihydro-isoxazol-5-yl]-acetylamino}-propionic acid; hydrochloride]",100 nM
4,"COC(=O)C[C@H](CN(C)C)NC(=O)CC1CC(c2ccc(C(=N)N)cc2)=NO1 (stereo partly drawn) [(R)-3-{2-[3-(4-Carbamimidoyl-phenyl)-4,5-dihydro-isoxazol-5-yl]-acetylamino}-4-dimethylamino-butyric acid methyl ester; TFA]",7000 nM
5,"COC(=O)C[C@@H](CC(C)C)NC(=O)CC1CC(c2ccc(C(=N)N)cc2)=NO1 (stereo partly drawn) [(R)-3-{2-[3-(4-Carbamimidoyl-phenyl)-4,5-dihydro-isoxazol-5-yl]-acetylamino}-5-methyl-hexanoic acid methyl ester; TFA]",50 nM
6,"CCCCS(=O)(=O)N[C@@H](CNC(=O)CC1CC(c2ccc(C(=N)N)cc2)=NO1)C(=O)O (stereo partly drawn) [(S)-2-(Butane-1-sulfonylamino)-3-{2-[3-(4-carbamimidoyl-phenyl)-4,5-dihydro-isoxazol-5-yl]-acetylamino}-propionic acid; TFA]",31 nM
7,"O=C(CC1CC(CCC2CCNCC2)=NO1)NC[C@H](NC(=O)OCc1ccccc1)C(=O)O (stereo partly drawn) [(S)-2-Benzyloxycarbonylamino-3-{2-[3-(2-piperidin-4-yl-ethyl)-4,5-dihydro-isoxazol-5-yl]-acetylamino}-propionic acid; TFA]",210 nM
8,"C=CCCOC(=O)N[C@@H](CNC(=O)CC1CC(c2ccc(C(=N)N)cc2)=NO1)C(=O)O (stereo partly drawn) [(S)-2-But-3-enyloxycarbonylamino-3-{2-[3-(4-carbamimidoyl-phenyl)-4,5-dihydro-isoxazol-5-yl]-acetylamino}-propionic acid; TFA]",44 nM
9,"CCCCOC(=O)N[C@@H](CN(C)C(=O)CC1CC(c2ccc(C(=N)N)cc2)=NO1)C(=O)O (stereo partly drawn) [(S)-2-Butoxycarbonylamino-3-({2-[3-(4-carbamimidoyl-phenyl)-4,5-dihydro-isoxazol-5-yl]-acetyl}-methyl-amino)-propionic acid; TFA]",200 nM
10,"CCCCOC(=O)N[C@@H](CNC(=O)CC1CC(C2CCNCC2)=NO1)C(=O)O (stereo partly drawn) [(S)-2-Butoxycarbonylamino-3-[2-(3-piperidin-4-yl-4,5-dihydro-isoxazol-5-yl)-acetylamino]-propionic acid; TFA]",6300 nM
11,"CCCCOC(=O)N[C@@H](CNC(=O)CC1CC(CC2CCNCC2)=NO1)C(=O)O (stereo partly drawn) [(S)-2-Butoxycarbonylamino-3-[2-(3-piperidin-4-ylmethyl-4,5-dihydro-isoxazol-5-yl)-acetylamino]-propionic acid; TFA]",10000 nM
12,"CCCCOC(=O)N[C@@H](CNC(=O)CC1CC(CCC2CCNCC2)=NO1)C(=O)O (stereo partly drawn) [(S)-2-Butoxycarbonylamino-3-{2-[3-(2-piperidin-4-yl-ethyl)-4,5-dihydro-isoxazol-5-yl]-acetylamino}-propionic acid; TFA]",180 nM
13,"CCCCOC(=O)N[C@@H](CNC(=O)CC1CC(CCCC2CCNCC2)=NO1)C(=O)O (stereo partly drawn) [(S)-2-Butoxycarbonylamino-3-{2-[3-(3-piperidin-4-yl-propyl)-4,5-dihydro-isoxazol-5-yl]-acetylamino}-propionic acid; TFA]",180 nM
14,"CCCCOC(=O)N[C@@H](CNC(=O)CC1CC(c2ccc(C(=N)N)cc2F)=NO1)C(=O)O (stereo partly drawn) [(S)-2-Butoxycarbonylamino-3-{2-[3-(4-carbamimidoyl-2-fluoro-phenyl)-4,5-dihydro-isoxazol-5-yl]-acetylamino}-propionic acid]",73 nM
15,"CCCCOC(=O)N[C@@H](CNC(=O)CC1CC(c2ccc(C(=N)N)cc2)=NO1)C(=O)OC (stereo partly drawn) [(S)-2-Butoxycarbonylamino-3-{2-[3-(4-carbamimidoyl-phenyl)-4,5-dihydro-isoxazol-5-yl]-acetylamino}-propionic acid methyl ester; hydrochloride]",30 nM
16,"CCCCOC(=O)N[C@@H](CNC(=O)CC1CC(c2ccc(C(=N)N)cc2)=NO1)C(=O)O (stereo partly drawn) [(S)-2-Butoxycarbonylamino-3-{2-[3-(4-carbamimidoyl-phenyl)-4,5-dihydro-isoxazol-5-yl]-acetylamino}-propionic acid; TFA]",75 nM and 42 nM
17,"CCCCOC(=O)N[C@@H](CNC(=O)CC1CC(c2ccc(N=C(N)N)cc2)=NO1)C(=O)O (stereo partly drawn) [(S)-2-Butoxycarbonylamino-3-{2-[3-(4-guanidino-phenyl)-4,5-dihydro-isoxazol-5-yl]-acetylamino}-propionic acid]",88 nM
18,"N=C(N)c1ccc(C2=NOC(CC(=O)NC[C@H](NC(=O)OCCC3CCCC3)C(=O)O)C2)cc1 (stereo partly drawn) [(S)-3-{2-[3-(4-Carbamimidoyl-phenyl)-4,5-dihydro-isoxazol-5-yl]-acetylamino}-2-(2-cyclopentyl-ethoxycarbonylamino)-propionic acid; TFA]",32 nM
